Measurements: paper PMC9607427, “Novel 7-Chloro-(4-thioalkylquinoline) Derivatives: Synthesis and Antiproliferative Activity through Inducing Apoptosis and DNA/RNA Damage” (Pharmaceuticals, 2022)
Where two headings read alike, the source gives them in different places.

Assays:
[1] = Cytotoxic MTS assay, MRC-5LD; format: cell-based, human; conditions: human; MTS, 72 h of incubation; read-out: Cytotoxic activity IC50, MRC5-LD
Method: (§1) In vitro cytotoxic activity of final compounds 5–82 was evaluated after 3 days of incubation against eight cell lines derived from human solid tumors including lung (A549 cells) and colon (HCT116 and HCT116p53−/−) carcinomas, as well as leukemia cell lines (CCRF-CEM, CEM-DNR, K562, and K562-TAX) and osteosarcoma (U2OS cells). For comparison, non-malignant BJ and MRC-5 fibroblasts, and BJLD and MCR-5LD fibroblasts doxorubicin-resistant cell lines were used. Concentrations inhibiting the cell growth by 50% (IC50) were determined using a quantitative metabolic staining with 3-(4,5-dimethylthiazol-2yl)-5-(3-carboxymethoxyphenyl)-2-(4-sulfophenyl)-2H-tetrazolium (MTS) and are summarized in (Table 3).
(§2) Cytotoxic activity was determined by MTS assay following 72 h of incubation. IC50 is the lowest concentration that kills 50% of cells. The standard deviation in cytotoxicity assays is typically up to 20% of the average value. […] The tested cell lines: A549 (lung adenocarcinoma), BJ (noncancerous human fibroblasts from foreskin), BJLD (human lung fibroblast doxorubicin-resistant), CCRF-CEM (childhood T cell acute lymphoblastic leukemia), a daunorubicin-resistant subline of CCRF-CEM cells (CEM-DNR bulk), HCT116 (colorectal carcinoma), HCT116p53−/− (HCT116 with deleted p53 gene), K562 (chronic myeloid leukemia), K562-TAX (chronic myeloid leukemia paclitaxel-resistant subline), MRC-5 (noncancerous human lung fibroblasts), MRC-5LD (noncancerous human lung fibroblasts doxorubicin-resistant), and U2OS (osteosarcoma).
(§3) All cell lines were purchased from the American Tissue Culture Collection (ATCC). The A549 cell line is lung adenocarcinoma. MRC-5 and BJ cell lines were used as a non-tumor control and represent human fibroblasts. (MRC-5 LD and BJLD) are doxorubicin-resistant human lung fibroblast cell lines. The CCRF-CEM line is derived from T lymphoblastic leukemia, evincing high chemosensitivity, whereas K562 represent cells from an […] patient sample with bcr-abl translocation. The daunorubicin-resistant subline of CCRF-CEM cells (CEM-DNR bulk) and paclitaxel-resistant subline K562-TAX were selected in our laboratory by the cultivation of maternal cell lines in increasing concentrations of daunorubicin or paclitaxel, respectively. The CEM-DNR bulk cells overexpress MRP-1 and P-glycoprotein protein, whereas K562-TAX cells overexpress P-glycoprotein only. Both proteins belong to the family of ABC transporters and are involved in the primary and/or acquired multidrug-resistance phenomenon. The U2OS cell line is derived from osteosarcoma, HCT116 is a colorectal tumor cell line and its p53 gene knock-down counterpart (HCT116p53−/−, Horizon Discovery Ltd., Cambridge, UK) is a model of human cancers with p53 mutation frequently associated with poor prognosis. The cells were maintained in nunc/corning 80 cm^2 plastic tissue culture flasks and cultured in a cell culture medium according to ATCC or Horizon recommendations (DMEM/RPMI 1640 with 5 g/L glucose, 2 mM glutamine, 100 U/mL penicillin, […], 10% fetal calf serum, and NaHCO3).
(§4) The activity of compounds was determined using a standard 3-(4,5-dimethylthiazol-2-yl)-5-(3-carboxymethoxyphenyl)-2-(4-sulfophenyl)-2H-tetrazolium (MTS) and it was performed at the Institute of Molecular and Translational Medicine by a robotic platform (High-ResBiosolutions). Cell suspensions were prepared and diluted according to the particular cell type and the expected target cell density (25,000–35,000 cells/mL based on cell growth characteristics). Cells were added by automatic pipettor (30 µL) into 384-well microtiter plates. All tested compounds were dissolved in 100% DMSO and four-fold dilutions of the intended test concentration were added in 0.15 µL aliquots at time zero to the microtiter plate wells by the echo acoustic non-contact liquid handler Echo550 (Labcyte). […]

[2] = Cytotoxic MTS assay, BJLD; format: cell-based, human; conditions: human, BJLD cells (fibroblasts, doxorubicin-resistant); MTS, 72 h of incubation
Method: as §1, §2, §3, §4

[3] = tested on: HCT116p53−/− (HCT116 with deleted p53 gene); assay: Cytotoxic MTS assay, HCT116p53−/−; format: cell-based, human
Method: as §1, §2, §3, §4

[4] = tested on: CCRF-CEM (childhood T cell acute lymphoblastic leukemia); assay: Cytotoxic MTS assay, CCRF-CEM; format: cell-based, human
Method: as §1, §2, §3, §4

[5] = Cytotoxic MTS assay, MRC-5; format: cell-based, human; conditions: human, MRC-5 cells (noncancerous lung fibroblasts); MTS, 72 h of incubation
Method: as §1, §2, §3, §4

[6] = tested on: CEM-DNR bulk (daunorubicin-resistant subline of CCRF-CEM cells); assay: Cytotoxic MTS assay, CEM-DNR; format: cell-based, human
Method: as §1, §2, §3, §4

[7] = tested on: K562-TAX (chronic myeloid leukemia paclitaxel-resistant subline); assay: Cytotoxic MTS assay, K562-TAX; format: cell-based, human
Method: as §1, §2, §3, §4

[8] = tested on: K562 (chronic myeloid leukemia); assay: Cytotoxic MTS assay, K562; format: cell-based, human
Method: as §1, §2, §3, §4

[9] = tested on: HCT116 (colorectal carcinoma); assay: Cytotoxic MTS assay, HCT116; format: cell-based, human
Method: as §1, §2, §3, §4

U2OS (osteosarcoma) = assay: Cytotoxic MTS assay, U2OS; format: cell-based, human
Method: as §1, §2, §3, §4

Cytotoxic MTS assay, BJ = format: cell-based, human; conditions: human, BJ cells (noncancerous foreskin fibroblasts); MTS, 72 h of incubation
Method: as §1, §2, §3, §4

[10] = tested on: A549 (lung adenocarcinoma); assay: Cytotoxic MTS assay, A549; format: cell-based, human
Method: as §1, §2, §3, §4

[11] = tested on: MRC-5LD (noncancerous human lung fibroblasts doxorubicin-resistant); assay: Cytotoxic MTS assay, MRC-5LD; format: cell-based
Method: as §1, §2, §3, §4

[12] = tested on: BJLD (human lung fibroblast doxorubicin-resistant); assay: Cytotoxic MTS assay, BJLD; format: cell-based
Method: as §1, §2, §3, §4

[13] = tested on: MRC-5 (noncancerous human lung fibroblasts); assay: Cytotoxic MTS assay, MRC-5; format: cell-based
Method: as §1, §2, §3, §4

[14] = tested on: BJ (noncancerous human fibroblasts from foreskin); assay: Cytotoxic MTS assay, BJ; format: cell-based
Method: as §1, §2, §3, §4

[15] = Homo sapiens, HCT-116, MTS, 72 h of incubation, read-out: Cytotoxic activity IC50, HCT116-p53
[16] = Homo sapiens, CCRF-CEM, MTS, 72 h of incubation, read-out: Cytotoxic activity IC50, CCRF-CEM
[17] = Homo sapiens, CEM-DNR, MTS, 72 h of incubation, read-out: Cytotoxic activity IC50, CEM-DNR
[18] = Homo sapiens, K562-Tax, MTS, 72 h of incubation, read-out: Cytotoxic activity IC50, K562-TAX
[19] = Homo sapiens, K562, MTS, 72 h of incubation, read-out: Cytotoxic activity IC50, K562
[20] = Homo sapiens, HCT-116, MTS, 72 h of incubation, read-out: Cytotoxic activity IC50, HCT116
[21] = Homo sapiens, U2OS, MTS, 72 h of incubation, read-out: Cytotoxic activity IC50, U2OS
[22] = Homo sapiens, A549, MTS, 72 h of incubation, read-out: Cytotoxic activity IC50, A549

| Structure (SMILES) | IC50 at 72 h [1] [µM] | IC50 at 72 h [2] [µM] | IC50 [3, 15] [µM] | IC50 [4, 16] [µM] | IC50 at 72 h [5] [µM] | IC50 [6, 17] [µM] | IC50 [7, 18] [µM] | IC50 [8, 19] [µM] | IC50 [11] [µM] | IC50 [12] [µM] | IC50 [3] [µM] | IC50 [4] [µM] | IC50 [13] [µM] | IC50 [6] [µM] | IC50 [7] [µM] | IC50 [8] [µM] | IC50 [9] [µM] | IC50 (U2OS (osteosarcoma)) [µM] | IC50 [14] [µM] | IC50 [10] [µM] | also measured |
| --- | --- | --- | --- | --- | --- | --- | --- | --- | --- | --- | --- | --- | --- | --- | --- | --- | --- | --- | --- | --- | --- |
| [O-][S+](CCO)c1ccnc2cc(Cl)ccc12 (stereo not drawn) [Compound 41, 2-[(7-Chloroquinolin-4-yl)sulfinyl]ethanol] | 24.5 | 28.5 | 22.5 | 4.52 | 26.5 | 35.1 | 21.4 | 27.8 |  |  |  |  |  |  |  |  |  |  |  |  | IC50 [9, 20]: 23.5 µM; IC50 (U2OS (osteosarcoma); [21]): 22.1 µM; IC50 at 72 h (Cytotoxic MTS assay, BJ): 33.3 µM; IC50 [10, 22]: 34.4 µM |
| COc1ccccc1C(=O)OCC[S+]([O-])c1ccnc2cc(Cl)ccc12 (stereo not drawn) [Compound 47, 2-[(7-Chloroquinolin-4-yl)sulfinyl]ethyl-2-methoxybenzoate] | 26.1 | 30.7 | 11.3 | 2.74 | 28.2 | 26.8 | 11.3 | 16.9 |  |  |  |  |  |  |  |  |  |  |  |  | IC50 [9, 20]: 15.9 µM; IC50 (U2OS (osteosarcoma); [21]): 19.1 µM; IC50 at 72 h (Cytotoxic MTS assay, BJ): 31.2 µM; IC50 [10, 22]: 32.2 µM |
| COc1ccc(C(=O)OCC[S+]([O-])c2ccnc3cc(Cl)ccc23)cc1[N+](=O)[O-] (stereo not drawn) [Compound 48, 2-[(7-Chloroquinolin-4-yl)sulfinyl]ethyl-4-methoxy-3-nitrobenzoate] | 24 | 27.5 | 10 | 1.42 | 27.8 | 12.9 | 9.03 | 16.9 |  |  |  |  |  |  |  |  |  |  |  |  | IC50 [9, 20]: 17 µM; IC50 (U2OS (osteosarcoma); [21]): 18.6 µM; IC50 at 72 h (Cytotoxic MTS assay, BJ): 29.2 µM; IC50 [10, 22]: 25 µM |
| Cc1ccc([N+](=O)[O-])c(C(=O)OCC[S+]([O-])c2ccnc3cc(Cl)ccc23)c1 (stereo not drawn) [Compound 49, 2-[(7-Chloroquinolin-4-yl)sulfinyl]ethyl-5-methyl-2-nitrobenzoate] | > 50 | 23.5 | 7.56 | 1.34 | > 50 | 7.75 | 6.4 | 12.3 |  |  |  |  |  |  |  |  |  |  |  |  | IC50 [9, 20]: 7 µM; IC50 (U2OS (osteosarcoma); [21]): 11.2 µM; IC50 at 72 h (Cytotoxic MTS assay, BJ): 30.7 µM; IC50 [10, 22]: 15.7 µM |
| COc1cccc(C(=O)OCCS(=O)(=O)c2cc[n+]([O-])c3cc(Cl)ccc23)c1OC [Compound 64, 2-[(N-Oxide 7-chloroquinolin-4-yl)sulfonyl]ethyl-2,3-dimethoxybenzoate] |  |  |  |  |  |  |  |  | 3.28 | 8.95 | 7.68 | 0.71 | 6.08 | 8.99 | 5.65 | 5.51 | 8.18 | 7.43 | 9.19 | 28.4 |  |
| COc1ccc(OC)c(C(=O)OCCCS(=O)(=O)c2cc[n+]([O-])c3cc(Cl)ccc23)c1 [Compound 75, 3-[(N-Oxide 7-chloroquinolin-4-yl)sulfonyl]propyl-2,5-dimethoxybenzoate] |  |  |  |  |  |  |  |  | 18.9 | 17.8 | 6.86 | 1.45 | 21.5 | 7.22 | 9.56 | 7.14 | 5.37 | 6.4 | 26.6 | 7.28 |  |
| COc1cc(OC)c(C(=O)OCCCS(=O)(=O)c2cc[n+]([O-])c3cc(Cl)ccc23)cc1OC [Compound 76, 3-[(N-Oxide 7-chloroquinolin-4-yl)sulfonyl]propyl-2,4,5-trimethoxybenzoate] |  |  |  |  |  |  |  |  | 19.6 | 24.4 | 8.66 | 2.22 | 22.5 | 18.1 | 19.9 | 8.77 | 7.96 | 9.33 | 35.7 | 11.4 |  |
| COc1cc(C(=O)OCCCS(=O)(=O)c2cc[n+]([O-])c3cc(Cl)ccc23)cc(OC)c1OC [Compound 77, 3-[(N-Oxide 7-chloroquinolin-4-yl)sulfonyl]propyl-3,4,5-trimethoxybenzoate] |  |  |  |  |  |  |  |  | 20.1 | 21.6 | 6.75 | 1.58 | 25.6 | 12 | 10.9 | 7.5 | 6.51 | 7.81 | 28.6 | 9.02 |  |
| COc1ccccc1C(=O)OCCCS(=O)(=O)c1cc[n+]([O-])c2cc(Cl)ccc12 [Compound 78, 3-[(N-Oxide 7-chloroquinolin-4-yl)sulfonyl]propyl-2-methoxybenzoate] |  |  |  |  |  |  |  |  | 19.5 | 19.7 | 6.99 | 2.63 | 22.6 | 9.18 | 8.78 | 7.37 | 5.64 | 7.18 | 25 | 7.75 |  |
| Cc1ccc([N+](=O)[O-])c(C(=O)OCCCS(=O)(=O)c2cc[n+]([O-])c3cc(Cl)ccc23)c1 [Compound 80, 3-[(N-Oxide 7-chloroquinolin-4-yl)sulfonyl]propyl-5-methyl-2-nitrobenzoate] |  |  |  |  |  |  |  |  | 16.3 | 15.9 | 6 | 1.49 | 20 | 6.78 | 6 | 6.75 | 4.61 | 5.74 | 22.2 | 6.44 |  |
| O=C(OCCCS(=O)(=O)c1cc[n+]([O-])c2cc(Cl)ccc12)c1ccc(C(F)(F)F)cc1 [Compound 82, 3-[(N-Oxide 7-chloroquinolin-4-yl)sulfonyl]propyl-4-(trifluoromethyl)benzoate] |  |  |  |  |  |  |  |  | 19.8 | 13.9 | 6.59 | 1.05 | 23.7 | 3.46 | 4.01 | 6.24 | 4.9 | 5.05 | 23.5 | 6.66 |  |
